Data taken from US20080095737A1, “NON-TOXIC COATING COMPOSITION, METHODS OF USE THEREOF AND ARTICLES PROTECTED FROM ATTACHMENT OF BIOFOULING ORGANISMS” (Symrise GmbH & Co. KG, priority 2000, published 2008).
In brackets after ≈: the same amount, converted by molar mass. Several values for one entry are separate records, joined by “and”; a condition that tells them apart may be missing. Identical values can stand only once. Like-named read-outs stand apart in the source and are kept apart here.

What was measured:
[1] = tested on: cyprid larvae of the barnacle, Balanus amphitrite Darwin; experiment: Barnacle settlement inhibition assay; type: in vivo; conditions: for EC50: Amphibalanus amphitrite, read-out: EC50 (concentration which inhibited the settlement of 50% of the cyprid stage larvae); for efficacy as antifouling agents: in words
From the text: Mary's College in Tuticorin, India. The barnacles were crushed and the nauplius stage larvae were collected for culture to the cyprid stage following the method of Rittschof et al., J. Exp. Mar. Biol. Ecol., 82:131146 (1984). The cyprid is the stage at which the barnacle larva is competent to attach to surfaces. Upon attachment to a surface, the larva then undergoes metamorphosis into a barnacle. Barnacle settlement assays were undertaken using the method described previously by Rittschof et al., J. Chem. […] Briefly, Falcon 50×9 mm plastic petri dishes were filled with 5 ml of filtered seawater at salinity of 33-35 parts per thousand (ppt) and into which 3-day old cyprid stage larvae were added. The test compounds were introduced at various concentrations into the dishes containing seawater. The test compounds included (-)menthol and (-)[…]-3,8-diol. Controls were represented by those dishes in which no test compound were added. After incubation at 28° C. for 9 hours, the dishes were examined under a dissecting microscope to determine if there was any mortality. […] Settlement data were expressed as the percentage of the larvae attached to the bottom of the dish. The same settlement assay was used to determine the effective concentration of a number of different compounds of formula I, above. The effective concentration (EC50) is that concentration which inhibited the settlement of fifty percent (50%) of the cyprid stage of the barnacle larvae present in a test sample.

[2] = tested on: Dunaliella tertiolecta; experiment: In vitro cell growth inhibition assay, marine unicellular algae; type: cell-based; conditions: 0.00001-1.0 mg/ml, cell counts at 24-hour intervals
Method: (§1) The in vitro cell growth inhibition assay used in this test is described in […], et al., J. Chem. Ecol., supra. Dunaliella tertiolecta is a marine micro algae cultured in the laboratory. Each test algae was inoculated from stock culture into flasks containing growth medium. (-)-menthol was added to the flask at various concentrations and the growth was monitored on each flask using a haemocytometer at 24-hour intervals up to the death phase of the culture.

[3] = tested on: Nitzchia sp.; experiment: In vitro cell growth inhibition assay, Nitzchia sp; type: cell-based; conditions: 0.00001-1.0 mg/ml, compared to the control
Method: as §1, with “culture. The test procedure employed was substantially the same as described in Example 4, except that Nitzchia sp. was substituted for D. tertiolecta.” for “culture.”

[4] = tested on: Flavobacterium sp. (F); experiment: Agar diffusion assay, marine bacteria associated with B. amphitrite; type: cell-based; conditions: 0.004 mg/ml loaded on 6.5 mm disks
[5] = tested on: other bacterial strains associated with B. amphitrite; experiment: as above; type: cell-based; conditions: 0.004 mg/ml loaded on 6.5 mm disks
[6] = tested on: barnacle, Balanus amphitrite communis; experiment: Painted iron panels submerged in the sea, barnacle attachment; conditions: cuprous oxide-containing marine paint on iron panels, submerged 78 weeks; control paint = 100
Method: A floating platform was constructed using layers of bamboo and styrofoam floats. The platform was designed with holders to accommodate test panels measuring 4 inches×12 inches×0.25 inches.
A first experimental paint was prepared, containing a biocidally effective amount of cuprous oxide and no other biocide which was used as the control. To this composition was added a combination of 0.5%, by weight of (−)-trans-pmenthan-3,8-diol and 0.50 of (−)-menthol (Composition A). A second paint composition was prepared from the same marine paint vehicle containing cuprous oxide, to which was added 2% by weight of (−)-menthol (Composition B). A third formulation was made from the same cuprous oxide-containing marine paint vehicle, to which was added 2% by weight of (−)-trans-p-menthan-3,8-diol (Composition C).
Solid iron panels having the above-mentioned dimensions were painted with the paint formulations thus prepared, placed in the holders in the floating platform and submerged continuously near the center of Bitac Cove in San Dionisio Bay (Philippines) for a period of 78 weeks. The panels were examined for a few minutes every three months and immediately resubmerged after photography. After 78 weeks, the panels were removed and inspected. The numbers of barnacles attached to the panels were counted. […]

[7] = tested on: Vibrio sp. (V, & V,); experiment: Agar diffusion assay, marine bacteria associated with Perna sp; type: cell-based; conditions: procedure as Example 2
[8] = tested on: Aeromonas sp. (Ael); experiment: Agar diffusion assay, marine bacteria associated with B. amphitrite; type: cell-based; conditions: 0.004 mg/ml loaded on 6.5 mm disks
[9] = tested on: fouling phytoplanktons; experiment: Attachment of fouling phytoplanktons on painted submerged cement structures (seawater raceway); parameters: key: +++++: highest amount of fouling attachments; −: no appreciable fouling attachments; conditions: 5% by weight in paint on cement structure, 60 days in seawater raceway
Method: A raceway measuring 100 feet long, 15 feet wide and 3 feet deep was constructed near the sea and lined with a plastic liner. Seawater was pumped directly from the sea and the Growth of naturally occurring plankton was induced by fertilization of the seawater. The total volume of the seawater was approximately 150 cubic meters. The water was circulated and aerated using a paddlewheel. Samples of the seawater were analyzed after 30 days and found to contain the following species of diatoms: Grammatophoria ocean ica, Nitzschia sp., A,inphora sp., Amphora bigilba, Thalassiothrix sp., Stauroneis sp., Licniophora sp., and Navicula sp. The seawater also contained the dinoflagellate, Peridhan sp., and the blue Green algae, Ocillatoria sp. and Rivularia sp.
A conventional paint formulation that was free of any tributyl tin compounds was used as a control. Paint formulations embodying the present invention were prepared by incorporating (−)-menthol and (−)-(trans)-p-menthan-3,8-diol at a dose concentration of 5 percent (5%) by weight of each compound into the same paint vehicle used for the control formulation, and these two formulations were painted on separate surfaces of cement structures placed in the raceway. The controls consisted of unpainted cement surface and surface painted with the control formulation. […]

[10] = tested on: nauplii of the barnacle, Balauus annphitrite Darwin; experiment: Mortality of barnacle nauplii at the effective concentrations; conditions: prolonged exposure at the compound's EC50 concentration
[11] = tested on: other bacterial strains associated with Perna sp; experiment: Agar diffusion assay, marine bacteria associated with Perna sp; conditions: procedure as Example 2
[12] = tested on: barnacle, Balanus amphitrite Darwin; conditions: cited from earlier work
[13] = settlement assay, cyprid larvae

C=C(C)C1CCC(C)CC1O (single isomer, unassigned; (-)) [(−)-isopulegol, 5-methyl-2-(1-methylethenyl)cyclohexanol]
EC50 [1, 13]: 0.088 µg/mL (≈ 0.57 µM)
efficacy as antifouling agents ([1]; settlement assay): superior efficacy

CC1CCC(C(C)C)C(O)C1 (single isomer, unassigned; (-)) [(−)-menthol]
inhibition of growth [2]: effective in inhibiting the growth of this micro algae in a dose dependent manner
inhibition of growth rate [3]: effective at all of the concentrations tested in inhibiting the growth rate
EC50 [1]: 4 µg/mL (≈ 25.6 µM)
settlement (percentage of the larvae attached to the bottom of the dish) ([1]; each of five concentrations tested (concentrations not given), in order, last = highest, 9 hours at 28° C., control 59% (diol) / 58% (menthol)): 39% and 34% and 26% and 23% and 21%
zone of inhibition, radius [4]: greater than 10 mm
sensitivity of bacterial strains [5]: moderately sensitive
% Settlement [6]: 16.1%
zone of inhibition, radius [7]: greater than 8.5 mm
zone of inhibition, radius [8]: greater than 10 mm
DEGREE OF BIOFOULING [9]: −
mortality of barnacle nauplii [10]: did not show any mortality
sensitivity of bacterial strains [11]: moderately sensitive

CC1CCC(C(C)C)C(=O)C1 (single isomer, unassigned; (-)) [(−)-menthone]
EC50 [1]: 1 µg/mL (≈ 6.48 µM)
mortality of barnacle nauplii [10]: did not show any mortality

CC1CCC(C(C)C)C(Cl)C1 (single isomer, unassigned; (-)) [(−)-menthyl chloride]
EC50 [1]: 0.1 µg/mL
mortality of barnacle nauplii [10]: did not show any mortality

CC1CCC(C(C)(C)O)C(O)C1 (single isomer, unassigned; (-)) [(−)-trans-p-menthan-3,8-diol]
EC50 [1]: 1 µg/mL (≈ 5.8 µM)
% Settlement [6]: 27.1%
DEGREE OF BIOFOULING [9]: −
mortality of barnacle nauplii [10]: did not show any mortality

CCC[CH2][Sn]([Cl])([CH2]CCC)[CH2]CCC [TBT chloride]
acute toxicity, estimated dose [12]: ~3.4 μg (microgram) per liter
acute toxicity, estimated dose ([12]; same value restated): ~0.0000034 grams/liter

CC1CCC(C(C)C)C(OCC(O)CO)C1 (centres unmarked) [menthoxypropanediol, 3-[[5-methyl-2-(1-methylethyl)cyclohexyl]oxy]-1,2-propanediol]
EC50 [1, 13]: 0.002 µg/mL (≈ 0.00868 µM)
efficacy as antifouling agents ([1]; settlement assay): superior efficacy
